Measured values: US12673056B2, “Oral formulation comprising a crystalline form of rabeximod” (Cyxone AB, priority 2020, dated 2026)

How the values were obtained:
[1] = Particle size by laser diffractometry (Malvern Mastersizer) following micronisation; assay type: physicochemical; settings: for Feed particles % <10 μm: before micronisation; for % <10 μm / D(0.1) / D(0.5) / D(0.9): result after micronisation
Excerpt: In a still further embodiment the composition comprises rabeximod in the form of a dry powder, e.g. a micronized powder. The particle size distribution can be determined by means of laser diffractometry. In a preferred embodiment, a Malvern Instru-ments Mastersizer is used to determine the particle size distribution. Using a Malvern Mastersizer apparatus, volume-based size distribution parameters will typically be re-ported, e.g. in the form of the D10, D50 and D90 values. The average particle size (D50-value), which is also denoted D50-value of the integral volume distribution, is defined in the context of this invention as the particle diameter at which 50 percent by volume of the particles have a smaller diameter than the diameter which corresponds to the D50-value. Likewise, 50 percent by volume of the particles have a larger diameter than the D50-value. Analogously, the D90-value of the integral volume distribution is defined as the particle diameter at which 90 percent by volume of the particles have a smaller diameter than the diameter which corresponds to the D90-value. Corre-spondingly, the D10-value of the integral volume distribution is defined as the particle diameter at which 10 percent by volume of the particles have a smaller diameter than the diameter which corresponds to the D10-value. Typically, in accordance with the present invention, the Rabeximod (micronized) dry powder has a particle size characterized by a D10 within the range of 0.5-1.0 μm, a D50 within the range of 1.5-3.5 μm, and/or a D90 within the range of 5.5-9.9 μm, when measured using laser light diffractometry.
The micronisation operation is performed using a standard jet-mill. The set point for the particle size was that not less than 90% of the particles should be smaller than 10 μm. In-process samples were drawn and analyzed using a Malvern Mastersizer during the process to verify that a sufficient size reduction had been achieved (Malvern Mastersizer 2000 instrument, equipped with a Scirocco 2000(A) dispersion unit and a Micro Tray, operated at 2.5 bar, a feed rate of 60%, a measuring time of 5 seconds and a background time of 5 second; compliant with Ph.Fur method 2.9.31).
Results of the micronisation step in particle size is provided in Table 1 for Rabeximod drug substance batches.

[2] = tested on: patients diagnosed with active RA; experiment: Phase II clinical trial in combination with stable dose of methotrexate; assay type: in vivo, human
Protocol: A total of 225 patients diagnosed with active RA based on the American Rheu-matism Association (ARA) revised criteria were randomized to receive one of the following treatments: • 6.25 mg of Rabeximod (daily) • 15 mg of Rabeximod (daily) • 37.5 mg of Rabeximod (daily) • Placebo
Study drug was provided in the form of a capsule comprising micronized rabeximod, as described in the preceding sections. Placebo was provided in the form of a capsule identical in appearance to the study drug formulation. In all treatment groups patients were required to continue taking a stable dose of methotrexate. Over 200 patients completed the study. During the study, safety, efficacy and pharmaco-kinetic/pharmacodynamic properties of the study drug formulation were assessed with appropriate tests.

healthy male volunteers = experiment: Phase 1 clinical trial: safety, tolerability, pharmacokinetics of single and multiple oral rising doses; assay type: in vivo, human
Excerpt: The Phase 1 study assessed the safety, tolerability, pharmacokinetics and pharmacodynamics of single and multiple oral rising doses of Rabeximod (in a capsule formulation as described in the preceding sections) in healthy male volunteers. The study also included an open-label, randomised, two-period crossover part that was designed to investigate the effect of food on the pharmacokinetics of Rabeximod. In total, 87 healthy male subjects were enrolled into the study.

Row | Structure (SMILES) | Feed particles % <10 μm [1] | % <10 μm [1] | D(0.1) [1] | D(0.5) [1] | D(0.9) [1] | most optimal treatment based on the efficacy and safety results ([2]; 15 mg daily) | effects for key secondary endpoints of treatment ([2]; 6.25, 15 or 37.5 mg daily with methotrexate, p<0.05) | predicted increase of AUC0-t and Cmax for a doubling in dose ([2]; Power Model, dose range 6.25 to 37.5 mg, patients with moderate or severe RA, on average) | kinetics with respect to time (accumulation in plasma consistent with t1/2) ([2]; repeated oral administration) | time plasma concentrations measurable post dose (healthy male volunteers; on average, following repeated once daily dosing (Day 14)) | increase of systemic exposure (AUC0-t) with dose (healthy male volunteers; repeated once daily administration) | increase of systemic exposure (AUC0-t) with dose (healthy male volunteers; single administration at 12.5 mg to 600 mg) | tolerability, higher doses (healthy male volunteers; single dose of 600 mg, and multiple dose of 600 mg loading followed by 100 mg) | tolerability, single doses (healthy male volunteers; single oral doses up to 400 mg) | tolerability, multiple oral doses (healthy male volunteers; up to a 200 mg loading dose followed by 50 mg maintenance dose)
1 | Cc1cc2nc3c4cc(Cl)ccc4n(CC(=O)NCCN(C)C)c3nc2cc1C [146-32] | 41.9% | 98.1% | 0.7 μm | 2.2 μm | 8.2 μm | – | – | – | – | – | – | – | – | – | –
2 | Cc1cc2nc3c4cc(Cl)ccc4n(CC(=O)NCCN(C)C)c3nc2cc1C [262-1] | 29.0% | 94.5% | 0.7 μm | 2.2 μm | 8.4 μm | – | – | – | – | – | – | – | – | – | –
3 | Cc1cc2nc3c4cc(Cl)ccc4n(CC(=O)NCCN(C)C)c3nc2cc1C [262-2] | 32.6% | 92.6% | 0.7 μm | 2.2 μm | 7.6 μm | – | – | – | – | – | – | – | – | – | –
4 | Cc1cc2nc3c4cc(Cl)ccc4n(CC(=O)NCCN(C)C)c3nc2cc1C [Rabeximod, 9-Chloro-2,3-dimethyl-6-(N,N-dimethylaminoethylamino-2-oxoethyl)-6H-indolo-[2,3b]quinoxaline] | – | – | – | – | – | most optimal | therapeutically meaningful and statistically significant | 2 fold | linear with respect to time | up to 168 hours | trend was also noted | approximately dose-proportional | less well tolerated due to phototoxicity reactions | well tolerated | well tolerated
5 | Cc1cc2nc3c4cc(Cl)ccc4n(CC(=O)NCCN(C)C)c3nc2cc1C [compound 149] | 30.9% | 99.1% | 0.6 μm | 2.0 μm | 5.9 μm | – | – | – | – | – | – | – | – | – | –
6 | Cc1cc2nc3c4cc(Cl)ccc4n(CC(=O)NCCN(C)C)c3nc2cc1C [compound 153] | 32.7% | 99.1% | 0.6 μm | 1.9 μm | 5.7 μm | – | – | – | – | – | – | – | – | – | –
